Experimental data from US20220306695A1, “COMPSTATIN ANALOGUES AND THEIR MEDICAL USES” (priority 2019, published 2022).
Starred links: 1 amine or outer side, 2 acyl side, 3 side chain; linkers in the order of their positions; H or OH if unused. Positions of bridges follow the written chain, without caps; N, C: chain ends. Non-standard residues stand in square brackets, D forms with d. Residues, ends and D or L forms follow the SMILES beside them. Groups on a side chain read outwards from the residue. *: point of attachment. Trp(1-Me) = Cn1cc(C[C@H](N)C(=O)O)c2ccccc21; C16 diacid = O=C(O)CCCCCCCCCCCCCCC(=O)*; γGlu = O=C(O)[C@H](CCC(=O)[*:2])N[*:1]; AEEA = NCCOCCOCC(=O)O; Sar = CNCC(=O)O

Experiments:
[1] = Solubility test at 10 mg/mL (visual inspection and light scattering); type: physicochemical; settings: for Solubility, Condition 1 Acetate pH 4: 10 mg/mL compound in 100 mM acetate pH 4; for Solubility, Condition 2 Acetate pH 5: 10 mg/mL compound in 100 mM acetate pH 5; for Solubility, Condition 3 Phosphate pH 6: 10 mg/mL compound in 100 mM phosphate pH 6; for Solubility, Condition 4 Phosphate pH 7: 10 mg/mL compound in 100 mM phosphate pH 7; for Solubility, Condition 5 Phosphate pH 7.5: 10 mg/mL compound in 100 mM phosphate pH 7.5
[2] = system: classical complement pathway; test: In vitro haemolysis assay (inhibition of classical complement pathway); type: cell-based, human; settings: Table 3; human serum, sensitized sheep red blood cells; read-out: IC50[nM], in vitro analysis of inhibition of hemolysis
Procedure, shortened: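 Serially diluted compound (9 points) was preincubated 15 min at room temperature with diluted human serum, titrated per batch to give 70-90% maximal haemolysis, in Tris/casein buffer pH 7.4 with Mg2+/Ca2+. Antibody-sensitized sheep erythrocytes were then added for 30 min at 37° C, and the reaction was stopped with EDTA. Haemolysis was read at A405, with IC50 from 4PL fit.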

Compound	Solubility, Condition 1 Acetate pH 4 [1]	Solubility, Condition 2 Acetate pH 5 [1]	Solubility, Condition 3 Phosphate pH 6 [1]	Solubility, Condition 4 Phosphate pH 7 [1]	Solubility, Condition 5 Phosphate pH 7.5 [1]	IC50 [2]
CC[C@H](C)[C@@H]1NC(=O)[C@@H](NC(=O)[C@H](Cc2ccccc2)NC(=O)[C@H](CCC(=O)O)NC(=O)[C@H](CO)NC(C)=O)CSSC[C@@H](C(=O)N(C)CC(=O)N[C@@H](CCC(=O)O)C(N)=O)NC(=O)[C@H](CCCNC(=N)N)NC(=O)[C@H](Cc2c[nH]cn2)NC(=O)[C@H](CCC(=O)O)NC(=O)CNC(=O)[C@H](Cc2c[nH]c3ccccc23)NC(=O)[C@H](CC(=O)O)NC(=O)[C@H](CCC(N)=O)NC(=O)[C@H](Cc2cn(C)c3ccccc23)NC1=O [Compound 78] (Ac-SEFCI[Trp(1-Me)]QDWGEHRC[Sar]E-NH2; disulfide 4-14)	− (denotes lack of solubility at the given condition, as UV absorbance at 340 nm exceeds 0.1 AU and/or it is visibly turbid or contains particles.)	− (denotes lack of solubility at the given condition, as UV absorbance at 340 nm exceeds 0.1 AU and/or it is visibly turbid or contains particles.)	+ (denotes solubility at the given condition, as determined by UV absorbance being less than 0.1 AU at 340 nm and the sample being clear when manually inspected.)	+ (denotes solubility at the given condition, as determined by UV absorbance being less than 0.1 AU at 340 nm and the sample being clear when manually inspected.)	+ (denotes solubility at the given condition, as determined by UV absorbance being less than 0.1 AU at 340 nm and the sample being clear when manually inspected.)	< 100 nM
CC[C@H](C)[C@@H]1NC(=O)[C@@H](NC(=O)[C@H](Cc2ccccc2)NC(=O)[C@H](CCC(=O)O)NC(=O)[C@H](CO)NC(C)=O)CSSC[C@@H](C(=O)N(C)CC(=O)N[C@@H](CCC(=O)O)C(N)=O)NC(=O)[C@H](CCCNC(=N)N)NC(=O)[C@H](Cc2c[nH]cn2)NC(=O)[C@H](CCC(=O)O)NC(=O)CN(C)C(=O)[C@H](Cc2c[nH]c3ccccc23)NC(=O)[C@H](CC(=O)O)NC(=O)[C@H](CCC(N)=O)NC(=O)[C@H](Cc2cn(C)c3ccccc23)NC1=O [Compound 79, Ac-SEFC(1)I[1-Me-Trp]QDW[Sar]EHRC(1)[Sar]E-NH2] (Ac-SEFCI[Trp(1-Me)]QDW[Sar]EHRC[Sar]E-NH2; disulfide 4-14)	− (denotes lack of solubility at the given condition, as UV absorbance at 340 nm exceeds 0.1 AU and/or it is visibly turbid or contains particles.)	− (denotes lack of solubility at the given condition, as UV absorbance at 340 nm exceeds 0.1 AU and/or it is visibly turbid or contains particles.)	+ (denotes solubility at the given condition, as determined by UV absorbance being less than 0.1 AU at 340 nm and the sample being clear when manually inspected.)	+ (denotes solubility at the given condition, as determined by UV absorbance being less than 0.1 AU at 340 nm and the sample being clear when manually inspected.)	+ (denotes solubility at the given condition, as determined by UV absorbance being less than 0.1 AU at 340 nm and the sample being clear when manually inspected.)	< 100 nM
CC[C@H](C)[C@@H]1NC(=O)[C@@H](NC(=O)[C@H](Cc2ccccc2)NC(=O)[C@H](CCC(=O)O)NC(C)=O)CSSC[C@@H](C(=O)N(C)CC(=O)N[C@@H](CCC(=O)O)C(=O)N[C@@H](C)C(N)=O)NC(=O)[C@H](CCCNC(=N)N)NC(=O)[C@H](Cc2c[nH]cn2)NC(=O)[C@H](CCC(=O)O)NC(=O)CNC(=O)[C@H](Cc2c[nH]c3ccccc23)NC(=O)[C@H](CC(=O)O)NC(=O)[C@H](CCC(N)=O)NC(=O)[C@H](Cc2cn(C)c3ccccc23)NC1=O [Compound 80] (Ac-EFCI[Trp(1-Me)]QDWGEHRC[Sar]EA-NH2; disulfide 3-13)	− (denotes lack of solubility at the given condition, as UV absorbance at 340 nm exceeds 0.1 AU and/or it is visibly turbid or contains particles.)	− (denotes lack of solubility at the given condition, as UV absorbance at 340 nm exceeds 0.1 AU and/or it is visibly turbid or contains particles.)	+ (denotes solubility at the given condition, as determined by UV absorbance being less than 0.1 AU at 340 nm and the sample being clear when manually inspected.)	+ (denotes solubility at the given condition, as determined by UV absorbance being less than 0.1 AU at 340 nm and the sample being clear when manually inspected.)	+ (denotes solubility at the given condition, as determined by UV absorbance being less than 0.1 AU at 340 nm and the sample being clear when manually inspected.)	< 100 nM
CC[C@H](C)[C@@H]1NC(=O)[C@@H](NC(=O)CN(C)C(=O)[C@H](CCC(=O)O)NC(=O)[C@H](CO)NC(C)=O)CSSC[C@@H](C(=O)N(C)CC(=O)N[C@@H](CCC(=O)O)C(=O)N[C@@H](C)C(N)=O)NC(=O)[C@H](CCCNC(=N)N)NC(=O)[C@H](Cc2c[nH]cn2)NC(=O)[C@H](CCC(=O)O)NC(=O)CNC(=O)[C@H](Cc2c[nH]c3ccccc23)NC(=O)[C@H](CC(=O)O)NC(=O)[C@H](CCC(N)=O)NC(=O)[C@H](Cc2cn(C)c3ccccc23)NC1=O [Compound 81] (Ac-SE[Sar]CI[Trp(1-Me)]QDWGEHRC[Sar]EA-NH2; disulfide 4-14)	− (denotes lack of solubility at the given condition, as UV absorbance at 340 nm exceeds 0.1 AU and/or it is visibly turbid or contains particles.)	− (denotes lack of solubility at the given condition, as UV absorbance at 340 nm exceeds 0.1 AU and/or it is visibly turbid or contains particles.)	+ (denotes solubility at the given condition, as determined by UV absorbance being less than 0.1 AU at 340 nm and the sample being clear when manually inspected.)	+ (denotes solubility at the given condition, as determined by UV absorbance being less than 0.1 AU at 340 nm and the sample being clear when manually inspected.)	+ (denotes solubility at the given condition, as determined by UV absorbance being less than 0.1 AU at 340 nm and the sample being clear when manually inspected.)	< 100 nM
CC[C@H](C)[C@@H]1NC(=O)[C@@H](NC(=O)[C@H](Cc2ccccc2)NC(C)=O)CSSC[C@@H](C(=O)N[C@H](C(=O)NCC(=O)N[C@@H](C)C(=O)N[C@@H](CCC(=O)O)C(=O)N[C@@H](CO)C(=O)N[C@@H](CCCCNC(=O)COCCOCCNC(=O)COCCOCCNC(=O)CC[C@H](NC(=O)CCCCCCCCCCCCCCC(=O)O)C(=O)O)C(N)=O)[C@@H](C)O)NC(=O)[C@H](CCCNC(=N)N)NC(=O)[C@H](Cc2c[nH]cn2)NC(=O)[C@H](CCC(=O)O)NC(=O)CNC(=O)[C@H](Cc2c[nH]c3ccccc23)NC(=O)[C@H](CC(=O)O)NC(=O)[C@H](CCC(N)=O)NC(=O)[C@H](Cc2cn(C)c3ccccc23)NC1=O [Compound 102] (Ac-FCI[Trp(1-Me)]QDWGEHRCTGAESK([AEEA-AEEA-γGlu-C16 diacid])-NH2; disulfide 2-12)	− (denotes lack of solubility at the given condition, as UV absorbance at 340 nm exceeds 0.1 AU and/or it is visibly turbid or contains particles.)	+ (denotes solubility at the given condition, as determined by UV absorbance being less than 0.1 AU at 340 nm and the sample being clear when manually inspected.)	+ (denotes solubility at the given condition, as determined by UV absorbance being less than 0.1 AU at 340 nm and the sample being clear when manually inspected.)	+ (denotes solubility at the given condition, as determined by UV absorbance being less than 0.1 AU at 340 nm and the sample being clear when manually inspected.)	+ (denotes solubility at the given condition, as determined by UV absorbance being less than 0.1 AU at 340 nm and the sample being clear when manually inspected.)	< 100 nM
CC[C@H](C)[C@@H]1NC(=O)[C@@H](NC(=O)[C@H](Cc2ccc(O)cc2)NC(=O)[C@H](C)NC(=O)[C@H](CO)NC(=O)CNC(=O)[C@H](CCC(=O)O)NC(C)=O)CSSC[C@@H](C(=O)N(C)CC(=O)N[C@@H](CCC(=O)O)C(N)=O)NC(=O)[C@H](CCCCNC(=O)COCCOCCNC(=O)COCCOCCNC(=O)CC[C@H](NC(=O)CCCCCCCCCCCCCCC(=O)O)C(=O)O)NC(=O)[C@H](Cc2c[nH]cn2)NC(=O)[C@H](CCC(=O)O)NC(=O)CNC(=O)[C@H](Cc2c[nH]c3ccccc23)NC(=O)[C@H](CC(=O)O)NC(=O)[C@H](CCC(N)=O)NC(=O)[C@H](Cc2cn(C)c3ccccc23)NC1=O [Compound 103, Ac-EGSAYC(1)I[1-Me-Trp]QDWGEH-[K([15-carboxy-pentadecanoyl][γGlu][Peg3][Peg3])]-C(1)[Sar]E-NH2] (Ac-EGSAYCI[Trp(1-Me)]QDWGEHK([AEEA-AEEA-γGlu-C16 diacid])C[Sar]E-NH2; disulfide 6-16)	− (denotes lack of solubility at the given condition, as UV absorbance at 340 nm exceeds 0.1 AU and/or it is visibly turbid or contains particles.)	+ (denotes solubility at the given condition, as determined by UV absorbance being less than 0.1 AU at 340 nm and the sample being clear when manually inspected.)	+ (denotes solubility at the given condition, as determined by UV absorbance being less than 0.1 AU at 340 nm and the sample being clear when manually inspected.)	+ (denotes solubility at the given condition, as determined by UV absorbance being less than 0.1 AU at 340 nm and the sample being clear when manually inspected.)	+ (denotes solubility at the given condition, as determined by UV absorbance being less than 0.1 AU at 340 nm and the sample being clear when manually inspected.)	< 100 nM
